This note sets out measurements from ChEMBL document CHEMBL5113535, “The Design, Synthesis, and Evaluation of Novel 9-Arylxanthenedione-Based Allosteric Modulators for the δ-Opioid Receptor” (J Med Chem, 2022).

The term EC50 denotes the concentration needed to bring the measured effect to its halfway point. For orientation: pKb means the Kb on a negative log10 scale, so that one unit is a factor of ten. High values mean a small Kb, low ones a large Kb.

The target of one assay is T1, Delta-type opioid receptor (Homo sapiens, UniProt P41143). The assay is described as follows: Agonist activity at human DOR expressed in CHO cells assessed as […] in ERK1/2 phosphorylation level. The assay is classed as functional, cell-based.
T1 sequence (P41143 whole entry): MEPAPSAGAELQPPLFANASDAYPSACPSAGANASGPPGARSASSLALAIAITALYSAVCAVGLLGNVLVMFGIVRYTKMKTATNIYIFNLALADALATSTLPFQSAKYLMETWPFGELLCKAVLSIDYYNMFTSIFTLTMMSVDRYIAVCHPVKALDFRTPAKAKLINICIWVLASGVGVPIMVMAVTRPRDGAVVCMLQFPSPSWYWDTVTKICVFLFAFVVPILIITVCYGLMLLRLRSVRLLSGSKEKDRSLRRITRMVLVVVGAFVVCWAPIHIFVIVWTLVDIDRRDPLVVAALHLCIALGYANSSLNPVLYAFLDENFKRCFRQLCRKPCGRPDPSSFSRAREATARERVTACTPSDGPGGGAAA
Settings: not given
`C=CCN1C[C@H](C)N([C@H](c2ccc(C(=O)NCC)cc2)c2cccc(OC)c2)C[C@H]1C`: the EC50 is 43.7 nM.
Take `CN1CC[C@@]2(c3cccc(O)c3)Cc3nc4ccccc4cc3C[C@@H]2C1`: the EC50 was 31.6 nM.

In a further assay the target is T1, Delta-type opioid receptor. To be noted: CHO, filed as modulator, time 1.0 hrs.
`CC(C)c1ccccc1COc1ccc(C2C3=C(CC(C)(C)CC3=O)OC3=C2C(=O)CC(C)(C)C3)cc1`: the pKb stood at 6.08.
The same measure, in the same setting: as for `Cc1ccccc1COc1ccc(C2C3=C(CC(C)(C)CC3=O)OC3=C2C(=O)CC(C)(C)C3)nc1`, the figure is 4.89; as for `CC1(C)CC(=O)C2=C(C1)OC1=C(C(=O)CC(C)(C)C1)C2c1ccc(OCC2CCCC2)cc1`, 5.57; as for `Cc1ccccc1COc1ccc(C2C3=C(CC(C)(C)CC3=O)OC3=C2C(=O)CC(C)(C)C3)cc1F`, 6.01.
Same read-out and setting: then `CCc1ccccc1COc1ccc(C2C3=C(CC(C)(C)CC3=O)OC3=C2C(=O)CC(C)(C)C3)cc1`, with 5.5.
Still for that read-out and setting: as for `C#Cc1ccccc1COc1ccc(C2C3=C(CC(C)(C)CC3=O)OC3=C2C(=O)CC(C)(C)C3)cc1`, the figure is 6.18.
For the compound `CC1(C)CC(=O)C2=C(C1)OC1=C(C(=O)CC(C)(C)C1)C2c1ccc(OCC2CCC2)cc1`, the pKb came to 5.72.
`CC1(C)CC(=O)C2=C(C1)OC1=C(C(=O)CC(C)(C)C1)C2c1ccc(OCc2ccccc2C2CC2)cc1`: the pKb is 5.53.
The compound `CC1(C)CC(=O)C2=C(C1)OC1=C(C(=O)CC(C)(C)C1)C2c1ccc(OCc2ccccc2Br)cc1` gave a pKb of 5.9.
In turn, `CC1CC(=O)C2=C(C1)OC1=C(C(=O)CC(C)C1)C2c1ccc(OCC2CCCCC2)cc1` (configuration not stated) displayed a pKb of 5.83.
